Test system: tyrosinase from human melanocytes
Test: dopa-oxidase activity of tyrosinase from human melanocytes
Type: cell-based
Description: Human melanocytes were prepared and cultured and then introduced into media containing different concentrations of 5-(n-octanoyl)salicylic acid (0.5 μM, 1 μM, 2 μM and 5 μM).
After three days, the melanocytes were "trypsinizated" in a 0.05%/0.02% trypsin/EDTA mixture in a phosphate buffer (50 mM at pH 6.8), washed three times in phosphate buffer containing 1% (w/v) of TRITON X-100 and subjected to ultrasound. After centrifuging, samples were withdrawn and mixed with 5 mM L-DOPA in phosphate buffer. The tyrosinase activity was evaluated by spectrophotometry. The increase in the absorbance at 475 nm is due to the formation of dopachrome from 5 mM DOPA being measured. The absorbance was read on a microplate reader at 25° C. for 60 min.
The activity of the cellular tyrosinase was measured with respect to a calibration range prepared with commercially available tyrosinase.

decrease of dopa-oxidase activity of the tyrosinase from the melanocytes (concentration of 5 μM, three days): more particularly pronounced
dopa-oxidase activity of the tyrosinase from the melanocytes (percentage of activity with respect to the starting activity, FIG. 1) (human melanocytes cultured three days with 0.5 μM, 1 μM, 2 μM and 5 μM, 5 mM L-DOPA, absorbance at 475 nm): significantly decreases
Compound: CCCCCCCC(=O)c1ccc(O)c(C(=O)O)c1 [5-(n-octanoyl)salicylic acid]
